# Measurements from patent US20230302159A1, “COMPOUNDS AND COMPOSITIONS FOR TUMOR DETECTION AND SURGICAL GUIDANCE” (Cornell University, priority 2020, published 2023).
# “Also recorded” adds a separate entry of the source.
# Columns and labels:
# RFP-ovsaho tumors = experiment: In vivo imaging study, spray on about 2 mm subcutaneous RFP-ovsaho tumors (Example 1); parameters: species or system mice; conditions: for tumor contrast after spray: 2 μM sprayed, no washing
# Protocol: In vivo imaging study. The animals inoculated with RFP-ovsaho cells in flank were used for the imaging study. To imitate the morphology of metastasized human ovarian cancer, the tumor size was controlled to 2 mm. The skin was removed prior to the spray of dye (2 μM, in saline). The tumor areas were sprayed and imaged using Cy7 filter set at different time points. RFP images were also acquired for tumor co-registration. The contrast ratio was calculated by [signal of tumor]/[signal of adjacent muscle]. Following the in vitro and cellular validation, we thought that the best candidate, CypH-11, which has excellent fluorescence property in different pH and in cells, could be an ideal agent to augment the detection of small cancerous lesions otherwise unnoticeable to surgeons. To verify the presumption, RFP positive ovsaho ovarian cancer cells were subcutaneously inoculated in mice. When tumors were about 2 mm in size, the skin was removed and the CypH-11 solution (2 μM in saline) was sprayed onto the tumor areas. […] The contrast continued to increase slightly and quickly reached plateau at ˜7 min. The tumor signal is about 150% higher than the adjacent muscle tissues, and the CypH-11 signal co-registered well with the RFP signal. […] In a separate set of experiment, animals were inoculated with two tumors. Each tumor was sprayed either with the prototype dye CypH-1 or CypH-11, and imaged simultaneously.
# [1] = tested on: OVASAHO/RFP-Luc subcutaneous tumors; experiment: In vivo fluorescence imaging of subcutaneous tumors by spraying, OVASAHO/RFP-Luc model; parameters: species or system mice; conditions: for fluorescence on tumor and normal tissue after spray: no washing; for signal to background ratio (tumor-to-muscle): 2 μM
# Excerpt: Detection of subcutaneous tumors by spraying. To evaluate the in vivo performance of the fluorogenic probes via the “spray-and-see” technique, an OVASAHO subcutaneous tumor model was used. For a facile signal co-registration, the cells were first engineered to express red fluorescence protein (RFP). Two weeks after subcutaneous inoculating of OVASAHO/RFP-Luc cells into both flanks, the tumors reached around 5 mm in size. The skin on the tumor area was removed, then the CypH-11 or Cy7 solution (2 μM in PBS) was sprayed once onto the exposed area. The whole body fluorescence images were continuously captured at various time points without washing (FIG. 14A). The tumor tissues were conveniently delineated by their intrinsic RFP fluorescence.
# Tumor models of subcutaneous implants and peritoneal implants. All animal procedures were carried out in compliance with the approved animal protocols and guidelines of the Institutional Animal Care and Use Committee at Weil Cornell Medical College. Mice (female, SCID Hairless Outbred Mouse) were purchased from Charles River (Wilmington, MA). To establish the subcutaneous implants, a suspension of OVASAHO/RFP-Luc cells (5.0×10^6) or SKOV3/GFP-Luc cells (5.0×10^6) in 100 μL PBS was inoculated into each flank of the female nude mice on both sides. After two weeks, the tumor implants grew to around 5 mm in size and were used for the spray experiment. To establish the peritoneal implants, SKOV3/GFP-Luc cells (5.0×10^6) suspended in […] were injected into the abdominal cavities of the female nude mice. After two weeks, the tumor growth was examined with an in vivo bioluminescence imaging system followed by peritoneal injection of D-luciferin potassium solution (200 μL, 15 mg/mL) for 10 min. Generally, mice bearing multiple disseminated peritoneal implants of 5 mm size in diameter were used for the experiment.
# In vivo fluorescence imaging of subcutaneous tumors. Two subcutaneous tumor models (OVASAHO/RFP-Luc and SKOV3/GFP-Luc) were used to compare the imaging capability of CypH-11, CypH-1, and Cy7. Mice bearing the subcutaneous implants were anesthetized in an induction chamber using 2% isoflurane, and anesthesia was maintained with 1.5-2.0% isoflurane via a nose cone. Sterile surgical tools were used to remove skin around the tumor. The mice images were captured using an IVIS SpectrumCT System from PerkinElmer (Waltham, MA). OVASAHO/RFP-Luc and SKOV3/GFP-Luc tumors were captured under an RFP channel (Excitation: 520-550 nm and Emission: 570-590 nm) and a GFP channel (Excitation: 450-480 nm and Emission: 510 530 nm), respectively. A Cy7 channel (Excitation: 730-760 nm and Emission: 790-810 nm) was applied to evaluate the fluorescence generated by CypH-11, CypH-1, and Cy7. After skin removal, the tumor area and the background fluorescence under the Cy7 channel were measured first. Solutions of CypH-11, CypH-1, and Cy7 (2 μM each) were sprayed on the surgical area, and the fluorescence of the Cy7 channel was measured continuously at each time point (1, 3, 5, 7, 10, and 15 min). Ten, five, and three OVASAHO tumors were used to evaluate CypH-11, CypH-1, and Cy7, respectively. Six SKOV3 tumors were used to evaluate CypH-11. To evaluate the tumor-to-normal tissue ratio, the whole tumor regions and the adjacent open-skin areas were drawn, and their fluorescence intensity was acquired by the IVIS software. Tumor-to-normal tissue ratio value was calculated as the average fluorescence intensity of the tumor divided by that of the normal area. Also, tumor-bearing mice were euthanized by carbon dioxide inhalation or a high dose of isoflurane (5%). The subcutaneous tumors and the adjacent muscles were then extracted, and CypH-11 (2 μM) was sprayed onto them. Images were subsequently captured under GFP/RFP/Cy7 channels.
Structure (SMILES),tumor contrast after spray (RFP-ovsaho tumors),"tumor to muscle ratio over the time course ([1]; 2 μM sprayed, all time points)",fluorescence on tumor and normal tissue after spray ([1]; 2 μM sprayed),"time to contrast plateau (RFP-ovsaho tumors; 2 μM in saline, sprayed) [min]","tumor signal higher than the adjacent muscle tissues (RFP-ovsaho tumors; 2 μM in saline, sprayed)","time to fluorescent signal highlighting the tumor after spray (RFP-ovsaho tumors; 2 μM in saline, sprayed, about 2 mm tumors)","time to fluorescence plateau ([1]; 2 μM in PBS, sprayed once) [min]",signal to background ratio (tumor-to-muscle) ([1]; 1 min after spray),signal to background ratio (tumor-to-muscle) ([1]; 5 min after spray),signal to background ratio (tumor-to-muscle) ([1]; 10 min after spray)
"CN(C)c1ccc(OC2=C(/C=C/C3=[N+](C)c4ccccc4C3(C)C)CCC/C2=C\C=C2\N(C)c3ccccc3C2(C)C)cc1.[Cl-] [CypH-1, reference compound]",minimally contrast,around 1.0,failed to detect the ovarian tumors by spraying; also recorded: very poor fluorescence enhancement in both the tumor and neighboring normal tissues,–,–,–,–,–,–,–
CC(C)N(C)c1ccc(OC2=C(/C=C/C3=[N+](C(C)C)c4ccccc4C3(C)C)CCC/C2=C\C=C2\N(C(C)C)c3ccccc3C2(C)C)cc1.[I-] [CypH-11],near instant signal enhancement,–,high fluorescence only on tumors but not on normal tissue,~7,about 150%,within a minute,≤ 10,1.3,1.4,1.5
